pIC50: −log10 of the molar value. Where only a bound is given, the exact number is not on record here.

For one assay, the system named is U-266. Put plainly: Induction of nitric oxide production in human U266 cells. It counts as functional, cell-based.
The next assay deals with RPMI-8226. Put plainly: Induction of apoptosis in human RPMI8226 cells at 10 to 20 uM by TUNEL assay relative to control. It counts as functional.

For the compound `O=C(O[C@@H]1Cc2c(O)cc(O)cc2O[C@@H]1c1cc(O)c(O)c(O)c1)c1cc(O)c(O)c(O)c1` [EPIGALOCATECHIN GALLATE], the pIC50 with U-266 was 4.63. Besides, the Activity in the assay on RPMI-8226 is listed as above 100%.

For the origin of these results see ChEMBL document CHEMBL4364318, “Targeting multiple myeloma with natural polyphenols” (Eur J Med Chem, 2019).
